The compounds below were run against T1, His-hSHIP1 enzyme (Homo sapiens, UniProt Q92835) (assay: His-hSHIP1 activity (phosphatase assay, IP4 substrate, Biomol Green)). Settings: ratio of initial velocities (IP4 25/IP4 250 μM final) compared with a reference SHIP1 activator; 37° C.
T1 construct: His
T1 sequence (Q92835 1-1189): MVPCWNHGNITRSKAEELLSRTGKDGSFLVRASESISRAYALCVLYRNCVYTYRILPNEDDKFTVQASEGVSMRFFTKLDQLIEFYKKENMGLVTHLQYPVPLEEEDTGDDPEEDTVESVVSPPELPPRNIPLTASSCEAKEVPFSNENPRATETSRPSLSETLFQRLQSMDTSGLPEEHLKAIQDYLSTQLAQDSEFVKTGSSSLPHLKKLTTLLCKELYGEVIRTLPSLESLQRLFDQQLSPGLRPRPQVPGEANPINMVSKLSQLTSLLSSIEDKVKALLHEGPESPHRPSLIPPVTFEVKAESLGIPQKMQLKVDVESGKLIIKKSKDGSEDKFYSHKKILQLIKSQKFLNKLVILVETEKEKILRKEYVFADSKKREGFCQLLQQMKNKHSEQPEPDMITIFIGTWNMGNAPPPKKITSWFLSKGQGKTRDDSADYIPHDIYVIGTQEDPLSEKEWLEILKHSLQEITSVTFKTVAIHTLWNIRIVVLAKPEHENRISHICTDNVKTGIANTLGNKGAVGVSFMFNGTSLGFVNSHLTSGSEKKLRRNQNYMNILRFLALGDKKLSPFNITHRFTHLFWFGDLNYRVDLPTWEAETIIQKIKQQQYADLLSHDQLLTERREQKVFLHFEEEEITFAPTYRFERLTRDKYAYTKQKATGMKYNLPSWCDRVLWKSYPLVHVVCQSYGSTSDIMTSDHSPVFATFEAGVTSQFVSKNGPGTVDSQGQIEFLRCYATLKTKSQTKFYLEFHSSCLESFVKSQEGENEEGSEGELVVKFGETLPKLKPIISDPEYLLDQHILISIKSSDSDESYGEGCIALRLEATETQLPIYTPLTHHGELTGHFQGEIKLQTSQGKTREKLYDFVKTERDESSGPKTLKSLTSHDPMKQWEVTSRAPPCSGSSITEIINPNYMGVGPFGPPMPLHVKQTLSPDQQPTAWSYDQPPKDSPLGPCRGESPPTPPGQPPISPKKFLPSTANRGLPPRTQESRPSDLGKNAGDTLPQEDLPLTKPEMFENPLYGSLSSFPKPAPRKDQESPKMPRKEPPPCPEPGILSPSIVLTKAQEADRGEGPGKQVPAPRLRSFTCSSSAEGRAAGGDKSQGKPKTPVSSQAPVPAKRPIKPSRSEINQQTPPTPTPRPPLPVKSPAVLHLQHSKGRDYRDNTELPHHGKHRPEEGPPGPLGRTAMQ
Type: biochemical
Parameters: key: +++: higher than reference or reference - 15%; ++: reference - 16% to reference - 30%; +: reference - 31% or lower; −: inhibitor
Description: Test compounds are dissolved in 95% ethanol to form stock solutions. Before screening, the stock solutions are diluted with Phosphatase Assay Buffer (20 mM Tris-HCL, 10 mM MgCl2 pH 7.5, 0.02% Tween 20) to form working assay solutions that contain 10% ethanol. The assay is carried out on 96-well microtiter plates using a modified procedure of that reported by Ong et al., Blood 110, 1942-1949, 2007 and Yang et al., Org Lett 7, 1073-1076, 2005, both of which references are incorporated herein by reference in their entirety.
A master mix is prepared that contains 50 μL of His-hSHIP1 enzyme (0.4-1.6 ng/μL final), 25 μL of the substrate, IP4 (25 or 250 μM final), and 50 μL of test compound in 3.3% ethanol ([…]). Control blanks are also prepared by replacing His-hSHIP1 enzyme, IP4, or test compounds with Phosphate Assay Buffer. […] Each reaction component is preincubated at 37° C. for 30 min before adding to a 96-well microtiter plate. The master mix is then incubated at 37° C. At time 0, 20, 25 and 30 min, 25 μL of the master mix is removed and transferred to a new 96-well microtiter plate, to which 100 μL of Biomol Green Reagent is added to stop the reaction. After incubating the mixture for 20 min at room temperature for color development, the absorbance is read with SpectraMax Plus 96-well plate reader at a wavelength of 650 nm. Phosphate released is plotted against time to calculate the initial velocities (i.e., slope of the graph) at each IP4 concentration. The initial velocities are baseline corrected and the ratio of initial velocities (IP425/IP4250) is calculated and used to rate the test compounds.
The compound numbers in Table 2 correspond to the compound numbers in Table 1 above. Scoring of the compound is expressed as follows: […]
In the case of `C=C1CC[C@H]2[C@H](CO)[C@@H]([C@@]3(C)CC[C@H](NC(C)=O)C[C@@H]3CO)CC[C@]12C` [compound 32, N-((1S,3S,4R)-3-(hydroxymethyl)-4-((3aS,4R,5S,7aS)-4-(hydroxymethyl)-7a-methyl-1-methyleneoctahydro-1H-inden-5-yl)-4-methylcyclohexyl)acetamide], the “Scoring (Initial Velocity Ratio)” value is reported as “++”. For `C[C@]1([C@H]2CCC3=C(C[C@@H](O)[C@@]3(C)c3ccccc3)[C@@H]2CO)CC[C@H](O)C[C@@H]1CO` [compound 37, (1S,2R,4R,5S)-5-((1R,2S,4S)-4-hydroxy-2-(hydroxymethyl)-1-methylcyclohexyl)-4-(hydroxymethyl)-1-methyl-1-phenyl-2,3,4,5,6,7-hexahydro-1H-inden-2-ol], the “Scoring (Initial Velocity Ratio)” value was “+”. In the case of `C[C@]1([C@H]2CC[C@@]3(C)[C@@H](CC[C@@]3(O)c3cccs3)[C@@H]2CO)CC[C@H](O)C[C@@H]1CO` [compound 34, (1S,3aS,4R,5S,7aS)-5-((1R,2S,4S)-4-hydroxy-2-(hydroxymethyl)-1-methylcyclohexyl)-4-(hydroxymethyl)-7a-methyl-1-(thiophen-2-yl)octahydro-1H-inden-1-ol], the “Scoring (Initial Velocity Ratio)” value is reported as “+”. For `C[C@]1([C@H]2CC[C@]3(C)C(c4ccco4)=CC[C@H]3[C@@H]2CO)CC[C@H](O)C[C@@H]1CO` [compound 30, (1S,3S,4R)-4-((3aS,6S,7R,7aS)-3-(furan-2-yl)-7-(hydroxymethyl)-3a-methyl-3a,4,5,6,7,7a-hexahydro-1H-inden-6-yl)-3-(hydroxymethyl)-4-methylcyclohexanol], the “Scoring (Initial Velocity Ratio)” value was “+”. With `C[C@@H]1CC[C@@]2(OC1)O[C@H]1C[C@H]3[C@H](CO)[C@@H]([C@@]4(C)CC[C@H](O)C[C@@H]4CO)CC[C@]3(C)[C@H]1[C@@H]2C` [compound 29, (1S,3S,4R)-3-(hydroxymethyl)-4-((2R,3S,3aR,3bS,5′R,6S,7R,7aS,8aS)-7-(hydroxymethyl)-3,3b,5′-trimethyltetradecahydrospiro[indeno[2,1-b]furan-2,2′-pyran]-6-yl)-4-methylcyclohexanol] the “Scoring (Initial Velocity Ratio)” value was “++”. In the case of `C[C@]1([C@H]2CC[C@@]3(C)[C@@H](CC[C@@]3(O)c3ccccc3)[C@@H]2CO)CC[C@H](O)C[C@@H]1CO` [compound 26, (1S,3aS,4R,5S,7aS)-5-((1R,2S,4S)-4-hydroxy-2-(hydroxymethyl)-1-methylcyclohexyl)-4-(hydroxymethyl)-7a-methyl-1-phenyloctahydro-1H-inden-1-ol], the “Scoring (Initial Velocity Ratio)” value is reported as “−”. With `C[C@]1([C@H]2CC[C@]3(C)C(c4ccccc4)=CC[C@H]3[C@@H]2CN)CC[C@H](O)C[C@@H]1CO.Cl` [compound 10, (1S,3S,4R)-4-((3aS,6S,7R,7aS)-7-(aminomethyl)-3a-methyl-3-phenyl-3a,4,5,6,7,7a-hexahydro-1H-inden-6-yl)-3-(hydroxymethyl)-4-methylcyclohexanol hydrochloride] the “Scoring (Initial Velocity Ratio)” value was “++”. For `CC1(C)CCC2=C1CC[C@H]([C@@]1(C)CC[C@H](O)C[C@@H]1CO)[C@H]2CNC(=O)c1cccnc1` [compound 1, N-(((4R,5S)-5-((1R,2S,4S)-4-hydroxy-2-(hydroxymethyl)-1-methylcyclohexyl)-1,1-dimethyl-2,3,4,5,6,7-hexahydro-1H-inden-4-yl)methyl)nicotinamide], the “Scoring (Initial Velocity Ratio)” value was “+”. For `C[C@]1([C@H]2CC[C@]3(C)C(c4ccccc4)=CC[C@H]3[C@@H]2CO)CC[C@H](O)C[C@@H]1CO` [compound 25, (1S,3S,4R)-3-(hydroxymethyl)-4-((3aS,6S,7R,7aS)-7-(hydroxymethyl)-3a-methyl-3-phenyl-3a,4,5,6,7,7a-hexahydro-1H-inden-6-yl)-4-methylcyclohexanol], the “Scoring (Initial Velocity Ratio)” value was “++”.

Reference: US9765085B2, “SHIP1 modulators and methods related thereto” (Aquinox Pharmaceuticals (Canada) Inc., priority 2013, dated 2017)
